# Reference: ChEMBL document CHEMBL5723584 (2023)
# Tests used:
# Conditions in all cases: Compound concentration 1.0 uM
# [1] = target: Serine/threonine-protein kinase mTOR (Homo sapiens) (UniProt P42345); test: activity of mTOR(h) at 1.0 µM in the Eurofins Kinase panel
# [2] = target: Testis-specific serine/threonine-protein kinase 3 (Homo sapiens) (UniProt Q96PN8); test: activity of TSSK3(h) at 1.0 µM in the Eurofins Kinase panel
# [3] = target: Ephrin type-B receptor 2 (Homo sapiens) (UniProt P29323); test: activity of EphB2(h) at 1.0 µM in the Eurofins Kinase panel
# [4] = target: Discoidin domain-containing receptor 2 (Homo sapiens) (UniProt Q16832); test: activity of DDR2(h) at 1.0 µM in the Eurofins Kinase panel
# [5] = target: Serine/threonine-protein kinase ICK (Homo sapiens) (UniProt Q9UPZ9); test: activity of ICK(h) at 1.0 µM in the Eurofins Kinase panel
# [6] = target: Cyclin-dependent kinase-like 1 (Homo sapiens) (UniProt Q00532); test: activity of CDKL1(h) at 1.0 µM in the Eurofins Kinase panel
# [7] = target: cGMP-dependent protein kinase 1 (Homo sapiens) (UniProt Q13976); test: activity of PKG1alpha(h) at 1.0 µM in the Eurofins Kinase panel
# [8] = target: RAC-alpha serine/threonine-protein kinase (Homo sapiens) (UniProt P31749); test: activity of PKBalpha(h) at 1.0 µM in the Eurofins Kinase panel
# [9] = target: Rho-associated protein kinase 2 (Homo sapiens) (UniProt O75116); test: activity of ROCK-II(h) at 1.0 µM in the Eurofins Kinase panel
# [10] = target: MAPK/MAK/MRK overlapping kinase (Homo sapiens) (UniProt Q9UQ07); test: activity of MOK(h) at 1.0 µM in the Eurofins Kinase panel
# [11] = target: Wee1-like protein kinase (Homo sapiens) (UniProt P30291); test: activity of Wee1(h) at 1.0 µM in the Eurofins Kinase panel
# [12] = target: Macrophage-stimulating protein receptor (Homo sapiens) (UniProt Q04912); test: activity of Ron(h) at 1.0 µM in the Eurofins Kinase panel
# [13] = target: Bone morphogenetic protein receptor type-1B (Homo sapiens) (UniProt O00238); test: activity of ALK6(h) at 1.0 µM in the Eurofins Kinase panel
# [14] = target: Calcium/calmodulin-dependent protein kinase type II subunit gamma (Homo sapiens) (UniProt Q13555); test: activity of CaMKIIgamma(h) at 1.0 µM in the Eurofins Kinase panel
# [15] = target: Protein kinase C zeta type (Homo sapiens) (UniProt Q05513); test: activity of PKCzeta(h) at 1.0 µM in the Eurofins Kinase panel
# [16] = target: Serine-protein kinase ATM (Homo sapiens) (UniProt Q13315); test: activity of ATM(h) at 1.0 µM in the Eurofins Kinase panel
# [17] = target: Serine/threonine-protein kinase Nek9 (Homo sapiens) (UniProt Q8TD19); test: activity of NEK9(h) at 1.0 µM in the Eurofins Kinase panel
# [18] = target: Death-associated protein kinase 2 (Homo sapiens) (UniProt Q9UIK4); test: activity of DAPK2(h) at 1.0 µM in the Eurofins Kinase panel
# [19] = target: Phosphatidylinositol 5-phosphate 4-kinase type-2 alpha (Homo sapiens) (UniProt P48426); test: activity of PIP4K2alpha(h) at 1.0 µM in the Eurofins Kinase panel
# [20] = target: Serine/threonine-protein kinase tousled-like 1 (Homo sapiens) (UniProt Q9UKI8); test: activity of TLK1(h) at 1.0 µM in the Eurofins Kinase panel
# [21] = target: Calcium/calmodulin-dependent protein kinase kinase 1 (Homo sapiens) (UniProt Q8N5S9); test: activity of CaMKK1(h) at 1.0 µM in the Eurofins Kinase panel
# [22] = target: Mitogen-activated protein kinase kinase kinase 21 (Homo sapiens) (UniProt Q5TCX8); test: activity of MLK4(h) at 1.0 µM in the Eurofins Kinase panel
# [23] = target: Cyclin-dependent kinase 5/CDK5 activator 1 (Homo sapiens) (UniProt Q00535+Q15078); test: activity of CDK5/p25(h) at 1.0 µM in the Eurofins Kinase panel; type: protein-complex assay
# [24] = target: Serine/threonine-protein kinase Nek3 (Homo sapiens) (UniProt P51956); test: activity of NEK3(h) at 1.0 µM in the Eurofins Kinase panel
# [25] = target: Interleukin-1 receptor-associated kinase 1 (Homo sapiens) (UniProt P51617); test: activity of IRAK1(h) at 1.0 µM in the Eurofins Kinase panel
# [26] = target: Calcium/calmodulin-dependent protein kinase type IV (Homo sapiens) (UniProt Q16566); test: activity of CaMKIV(h) at 1.0 µM in the Eurofins Kinase panel
# [27] = target: Serine/threonine-protein kinase Sgk1 (Homo sapiens) (UniProt O00141); test: activity of SGK(h) at 1.0 µM in the Eurofins Kinase panel
# [28] = target: Myotonin-protein kinase (Homo sapiens) (UniProt Q09013); test: activity of DMPK(h) at 1.0 µM in the Eurofins Kinase panel
# [29] = target: PI3-kinase p110-delta/p85-alpha (Homo sapiens) (UniProt P27986+O00329); test: activity of PI3 Kinase (p110delta/p85alpha)(h) at 1.0 µM in the Eurofins Kinase panel; type: protein-complex assay
# [30] = target: Vascular endothelial growth factor receptor 1 (Homo sapiens) (UniProt P17948); test: activity of Flt1(h) at 1.0 µM in the Eurofins Kinase panel
# [31] = target: G protein-coupled receptor kinase 3 (Homo sapiens) (UniProt P35626); test: activity of GRK3(h) at 1.0 µM in the Eurofins Kinase panel
# [32] = target: Leucine-rich repeat serine/threonine-protein kinase 2 (Homo sapiens) (UniProt Q5S007); test: activity of LRRK2(h) at 1.0 µM in the Eurofins Kinase panel
# [33] = target: Protein kinase C alpha type (Homo sapiens) (UniProt P17252); test: activity of PKCalpha(h) at 1.0 µM in the Eurofins Kinase panel
# [34] = target: Mitogen-activated protein kinase 8 (Homo sapiens) (UniProt P45983); test: activity of JNK1alpha1(h) at 1.0 µM in the Eurofins Kinase panel
# [35] = target: Phosphatidylinositol 4-phosphate 3-kinase C2 domain-containing subunit alpha (Homo sapiens) (UniProt O00443); test: activity of PI3KC2alpha(h) at 1.0 µM in the Eurofins Kinase panel
# [36] = target: Rhodopsin kinase GRK7 (Homo sapiens) (UniProt Q8WTQ7); test: activity of GRK7(h) at 1.0 µM in the Eurofins Kinase panel
# [37] = target: Serine/threonine-protein kinase TBK1 (Homo sapiens) (UniProt Q9UHD2); test: activity of TBK1(h) at 1.0 µM in the Eurofins Kinase panel
# [38] = target: Dual specificity tyrosine-phosphorylation-regulated kinase 3 (Homo sapiens) (UniProt O43781); test: activity of DYRK3(h) at 1.0 µM in the Eurofins Kinase panel
# [39] = target: Tyrosine-protein kinase Fyn (Homo sapiens) (UniProt P06241); test: activity of Fyn(h) at 1.0 µM in the Eurofins Kinase panel
# Chain of Rhodopsin kinase GRK7 (Homo sapiens) (Q8WTQ7 whole entry): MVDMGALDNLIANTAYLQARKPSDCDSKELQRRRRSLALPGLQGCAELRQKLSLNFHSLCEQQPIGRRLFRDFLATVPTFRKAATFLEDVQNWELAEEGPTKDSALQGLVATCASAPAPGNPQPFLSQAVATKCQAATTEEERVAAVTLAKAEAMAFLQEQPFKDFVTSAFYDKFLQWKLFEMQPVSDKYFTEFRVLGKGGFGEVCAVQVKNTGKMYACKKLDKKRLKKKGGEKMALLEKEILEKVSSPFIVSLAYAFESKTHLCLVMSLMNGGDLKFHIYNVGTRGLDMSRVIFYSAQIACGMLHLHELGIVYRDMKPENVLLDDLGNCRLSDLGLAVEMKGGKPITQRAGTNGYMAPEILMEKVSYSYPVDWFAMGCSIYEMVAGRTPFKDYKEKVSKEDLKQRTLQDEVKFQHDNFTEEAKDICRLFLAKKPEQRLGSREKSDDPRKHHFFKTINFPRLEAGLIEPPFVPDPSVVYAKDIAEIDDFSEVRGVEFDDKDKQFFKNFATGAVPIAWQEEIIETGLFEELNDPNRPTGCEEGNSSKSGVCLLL
# Chain of Mitogen-activated protein kinase 8 (Homo sapiens) (P45983 whole entry, the tested form may be a part): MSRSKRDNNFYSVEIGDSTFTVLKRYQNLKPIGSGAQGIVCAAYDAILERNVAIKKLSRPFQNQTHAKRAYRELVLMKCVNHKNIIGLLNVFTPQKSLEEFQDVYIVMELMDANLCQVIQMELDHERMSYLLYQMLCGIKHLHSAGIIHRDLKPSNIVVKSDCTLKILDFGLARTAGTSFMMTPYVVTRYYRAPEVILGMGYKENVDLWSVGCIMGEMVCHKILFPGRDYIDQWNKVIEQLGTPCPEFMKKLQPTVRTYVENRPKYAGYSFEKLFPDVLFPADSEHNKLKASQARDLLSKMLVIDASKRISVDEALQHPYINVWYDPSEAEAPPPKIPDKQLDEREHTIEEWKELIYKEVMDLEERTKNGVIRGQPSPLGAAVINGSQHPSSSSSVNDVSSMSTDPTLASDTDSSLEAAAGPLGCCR
# Chain of Rho-associated protein kinase 2 (Homo sapiens) (O75116 whole entry, looked up): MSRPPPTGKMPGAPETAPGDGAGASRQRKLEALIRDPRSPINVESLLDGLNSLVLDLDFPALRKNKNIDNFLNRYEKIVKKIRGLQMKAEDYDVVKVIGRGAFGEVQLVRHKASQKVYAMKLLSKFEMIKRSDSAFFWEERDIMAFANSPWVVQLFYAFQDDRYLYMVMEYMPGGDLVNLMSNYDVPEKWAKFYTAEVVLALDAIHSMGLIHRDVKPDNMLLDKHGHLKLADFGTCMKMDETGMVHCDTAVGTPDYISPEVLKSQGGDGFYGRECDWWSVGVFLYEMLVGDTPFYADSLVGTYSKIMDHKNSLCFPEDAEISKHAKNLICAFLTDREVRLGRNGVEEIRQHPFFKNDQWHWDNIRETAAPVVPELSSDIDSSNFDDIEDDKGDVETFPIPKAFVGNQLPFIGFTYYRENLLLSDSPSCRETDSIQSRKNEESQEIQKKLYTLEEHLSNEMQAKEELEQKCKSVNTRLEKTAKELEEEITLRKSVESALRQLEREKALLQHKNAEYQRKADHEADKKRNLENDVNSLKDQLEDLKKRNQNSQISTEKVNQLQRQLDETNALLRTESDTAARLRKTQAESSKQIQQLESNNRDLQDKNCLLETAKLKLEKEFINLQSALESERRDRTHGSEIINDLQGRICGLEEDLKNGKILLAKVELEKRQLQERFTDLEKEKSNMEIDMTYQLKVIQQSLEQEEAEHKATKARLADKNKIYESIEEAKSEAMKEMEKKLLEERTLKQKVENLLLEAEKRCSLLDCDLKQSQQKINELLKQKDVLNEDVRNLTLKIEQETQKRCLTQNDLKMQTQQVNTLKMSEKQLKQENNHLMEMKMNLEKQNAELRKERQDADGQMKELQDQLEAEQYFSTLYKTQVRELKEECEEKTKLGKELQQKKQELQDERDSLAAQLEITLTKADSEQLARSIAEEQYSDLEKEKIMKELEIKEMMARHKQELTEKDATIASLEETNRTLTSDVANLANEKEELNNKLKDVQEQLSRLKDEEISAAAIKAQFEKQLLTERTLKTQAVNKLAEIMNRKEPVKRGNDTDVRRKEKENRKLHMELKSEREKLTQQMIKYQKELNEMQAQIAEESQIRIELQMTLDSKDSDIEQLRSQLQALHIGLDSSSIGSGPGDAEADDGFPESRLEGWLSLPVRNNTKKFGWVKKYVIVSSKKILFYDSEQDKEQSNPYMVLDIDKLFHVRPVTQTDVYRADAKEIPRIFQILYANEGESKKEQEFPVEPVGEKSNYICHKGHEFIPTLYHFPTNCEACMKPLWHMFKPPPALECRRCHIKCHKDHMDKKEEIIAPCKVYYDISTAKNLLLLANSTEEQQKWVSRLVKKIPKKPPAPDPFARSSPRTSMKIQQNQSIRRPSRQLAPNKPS
# Chain of Serine/threonine-protein kinase TBK1 (Homo sapiens) (Q9UHD2 whole entry): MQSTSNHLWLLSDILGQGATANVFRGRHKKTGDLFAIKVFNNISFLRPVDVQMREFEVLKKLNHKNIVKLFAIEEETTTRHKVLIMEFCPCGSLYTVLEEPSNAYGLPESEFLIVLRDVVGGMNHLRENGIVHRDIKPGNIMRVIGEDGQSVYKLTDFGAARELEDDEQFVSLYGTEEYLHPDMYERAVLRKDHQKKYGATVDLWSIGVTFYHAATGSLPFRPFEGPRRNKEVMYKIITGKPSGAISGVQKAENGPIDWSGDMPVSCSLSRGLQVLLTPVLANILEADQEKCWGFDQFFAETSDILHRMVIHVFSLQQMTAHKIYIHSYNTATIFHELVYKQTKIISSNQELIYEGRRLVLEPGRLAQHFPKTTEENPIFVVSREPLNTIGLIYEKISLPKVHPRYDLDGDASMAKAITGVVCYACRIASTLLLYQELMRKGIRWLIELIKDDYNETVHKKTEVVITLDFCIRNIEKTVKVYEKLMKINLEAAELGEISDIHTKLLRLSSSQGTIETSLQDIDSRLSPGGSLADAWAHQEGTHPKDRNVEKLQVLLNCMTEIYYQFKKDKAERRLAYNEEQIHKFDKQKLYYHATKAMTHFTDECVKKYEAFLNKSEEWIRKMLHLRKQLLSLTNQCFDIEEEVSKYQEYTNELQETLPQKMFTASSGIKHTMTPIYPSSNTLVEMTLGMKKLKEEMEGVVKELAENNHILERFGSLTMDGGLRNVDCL
# Chain of Dual specificity tyrosine-phosphorylation-regulated kinase 3 (Homo sapiens) (O43781 whole entry): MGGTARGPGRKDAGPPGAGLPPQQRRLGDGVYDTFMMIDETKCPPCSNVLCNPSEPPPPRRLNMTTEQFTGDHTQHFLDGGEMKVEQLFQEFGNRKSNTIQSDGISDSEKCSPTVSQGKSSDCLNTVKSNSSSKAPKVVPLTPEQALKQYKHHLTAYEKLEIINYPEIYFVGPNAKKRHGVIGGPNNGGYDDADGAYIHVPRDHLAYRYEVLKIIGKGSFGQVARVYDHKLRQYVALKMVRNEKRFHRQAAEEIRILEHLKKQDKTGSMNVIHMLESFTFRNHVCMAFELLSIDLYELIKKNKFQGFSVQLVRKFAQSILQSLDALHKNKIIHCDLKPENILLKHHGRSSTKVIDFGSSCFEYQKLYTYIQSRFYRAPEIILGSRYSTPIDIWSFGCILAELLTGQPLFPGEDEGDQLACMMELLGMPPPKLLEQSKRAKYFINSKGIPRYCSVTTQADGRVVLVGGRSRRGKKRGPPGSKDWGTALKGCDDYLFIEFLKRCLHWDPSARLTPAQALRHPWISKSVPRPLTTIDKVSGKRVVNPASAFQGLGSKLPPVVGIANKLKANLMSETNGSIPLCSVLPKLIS
# Chain of Cyclin-dependent kinase 5/CDK5 activator 1 (Homo sapiens) (Q00535 whole entry): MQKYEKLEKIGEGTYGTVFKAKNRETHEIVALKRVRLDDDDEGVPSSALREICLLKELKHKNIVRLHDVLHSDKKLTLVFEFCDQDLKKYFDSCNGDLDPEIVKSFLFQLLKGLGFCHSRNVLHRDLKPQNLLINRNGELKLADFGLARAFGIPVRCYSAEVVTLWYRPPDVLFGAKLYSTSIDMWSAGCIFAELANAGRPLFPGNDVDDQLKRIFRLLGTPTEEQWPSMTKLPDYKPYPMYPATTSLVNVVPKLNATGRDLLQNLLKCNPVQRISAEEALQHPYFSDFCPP
# Chain of Cyclin-dependent kinase 5/CDK5 activator 1 (Homo sapiens) (Q15078 99-307 partner limits assumed): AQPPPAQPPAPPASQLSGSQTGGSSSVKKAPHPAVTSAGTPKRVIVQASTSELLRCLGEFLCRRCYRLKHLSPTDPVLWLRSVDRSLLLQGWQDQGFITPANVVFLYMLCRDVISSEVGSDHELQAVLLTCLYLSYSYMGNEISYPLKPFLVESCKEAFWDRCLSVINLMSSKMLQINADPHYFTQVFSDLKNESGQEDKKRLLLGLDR
# Chain of Bone morphogenetic protein receptor type-1B (Homo sapiens) (O00238 whole entry): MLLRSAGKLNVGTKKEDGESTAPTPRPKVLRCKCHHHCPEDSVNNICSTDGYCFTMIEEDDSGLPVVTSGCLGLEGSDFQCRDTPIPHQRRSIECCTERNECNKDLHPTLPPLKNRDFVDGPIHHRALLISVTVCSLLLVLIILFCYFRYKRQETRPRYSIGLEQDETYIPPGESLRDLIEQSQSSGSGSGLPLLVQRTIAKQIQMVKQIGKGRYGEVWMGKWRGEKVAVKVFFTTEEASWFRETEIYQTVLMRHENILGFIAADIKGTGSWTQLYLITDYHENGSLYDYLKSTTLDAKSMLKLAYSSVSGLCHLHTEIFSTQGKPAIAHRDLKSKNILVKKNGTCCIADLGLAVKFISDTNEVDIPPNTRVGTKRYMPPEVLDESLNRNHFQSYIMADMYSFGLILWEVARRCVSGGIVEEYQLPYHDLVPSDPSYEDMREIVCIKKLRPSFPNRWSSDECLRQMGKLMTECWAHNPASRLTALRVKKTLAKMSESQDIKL
# Chain of Testis-specific serine/threonine-protein kinase 3 (Homo sapiens) (Q96PN8 whole entry): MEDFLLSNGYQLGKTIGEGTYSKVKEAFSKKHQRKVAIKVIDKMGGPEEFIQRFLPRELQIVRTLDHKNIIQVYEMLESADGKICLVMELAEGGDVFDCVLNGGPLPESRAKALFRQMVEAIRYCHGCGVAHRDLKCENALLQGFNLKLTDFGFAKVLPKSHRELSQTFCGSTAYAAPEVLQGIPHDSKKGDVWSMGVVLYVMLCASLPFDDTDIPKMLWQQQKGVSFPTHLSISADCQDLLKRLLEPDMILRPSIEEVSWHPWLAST
structure (smiles),measurement,setting,value
Cc1cc2c(-c3ccc(NC(=O)[C@H](N)CC(C)(C)C)cc3C)ccnc2[nH]1,activity,[1],95%
same,activity,[2],96%
same,activity,[3],96%
same,activity,[4],85%
same,activity,[5],99%
same,activity,[6],99%
same,activity,[7],118%
same,activity,[8],87%
same,activity,[9],96%
same,activity,[10],90%
same,activity,[11],94%
same,activity,[12],111%
same,activity,[13],74%
same,activity,[14],106%
same,activity,[15],88%
same,activity,[16],103%
same,activity,[17],79%
same,activity,[18],109%
same,activity,[19],100%
same,activity,[20],82%
same,activity,[21],89%
same,activity,[22],112%
same,activity,[23],72%
same,activity,[24],110%
same,activity,[25],95%
same,activity,[26],99%
same,activity,[27],113%
same,activity,[28],93%
same,activity,[29],110%
same,activity,[30],125%
same,activity,[31],81%
same,activity,[32],100%
same,activity,[33],92%
same,activity,[34],110%
same,activity,[35],102%
same,activity,[36],98%
same,activity,[37],100%
same,activity,[38],99%
same,activity,[39],100%
